From publication PMC8456958, “Selective Bacterial Targeting and Infection‐Triggered Release of Antibiotic Colistin Conjugates” (Angewandte Chemie (International Ed. in English), 2021)
In brackets after ≈: the same amount, converted by molar mass.

What was measured:
E. coli K12 = format: cell-based, Escherichia coli; details: for MIC with 10 mU mL^−1 Elastase / MIC with 100 mU mL^−1 Elastase / MIC without Elastase: Table 2, E. coli K12, conservative MIC readouts of at least three independent biological experiments
Description: Determination of antibacterial activities by broth dilution assay
Bacterial suspensions at 5-6 x 10^5 CFU (1:1000 dilution of a bacterial suspension of OD600 = 1) in T-medium were incubated in volumes of 200 µl in sterile clear 96-well microtiter plates at 37 °C in a wet chamber with serial dilution of peptide-colistin constructs and controls (32 – 0.016 µM) for 18 h.
External neutrophil elastase was added at 10 mU/ml or 100 mU/ml to each well at the start of incubation, where indicated. After the incubation, the plate was placed for 5 min on a MTP shaker to generate homogenous bacterial suspensions. OD600 was then determined in a microplate reader. The wells with the lowest compound concentration without growth defined the MICs. […]
Figure S7. Heat plot of the growth of E. coli K12 and E. coli DSM 1116 in presence of 6. Rows A-D: E. coli K12; Rows E-H: E. coli DSM 1116; A + E colistin; B + F peptide-colistin construct 6; C + G peptide-colistin construct 6 + 10 mU/ml elastase; D + H bacteria without compounds. The numbers below the heatplot depict the concentration of colistin and peptides in µM. Conditions: T medium, incubation 20 h at 37 °C in wet chamber; inoculum: cultures at OD = 1.0 diluted 1:1000 (5-6 x 10^5 CFU/ml). […]
Figure S10. Heat plot of the growth of E. coli in presence of 48 and 49. Row A: E. coli K12 without added compounds; B colistin B; C peptide-colistin construct 49; D peptide-colistin construct 49 + 10 mU/ml elastase; E ElsaSub-colistin; F 48 with 10 mU elastase; G 4; H 4 with […]. The numbers depict the concentration of colistin and peptides in µM. Conditions: T medium, incubation 17.5 h at 37 °C in wet chamber; inoculum 5-6 x 10^5 CFU/ml. […]
with elastase 10 mU/ml pos-1-isomer (22) […]
with elastase 10 mU/ml pos-3-isomer (28) […]
with elastase 10 mU/ml pos-5-isomer (34) […]
with elastase 10 mU/ml pos-8-isomer (40) […]
with elastase 10 mU/ml pos-9-isomer (46)
Figure S11. Heat plot of the growth of E. coli in presence of positional isomers obtained by total chemical synthesis. Conditions: T medium, incubation for 20 h at 37 °C in wet chamber; inoculum 5-6 x 10^5 CFU/ml. Addition of neutrophil elastase at 10 and 100 mU/ml, as indicated. Concentrations of isomers stated below the heat plot in µg/ml. […]

[1] = test system: E. coli K12, A. baumannii, P. aeruginosa PA14; assay: Quantification of bacterial binding of fluorescently labelled compounds; format: cell-based; details: 1 μM in PBS, rt, 1 h incubation, washing, 485/520 nm
Description: Figure 4 Staining of Gram‐negative bacteria with fluorescently labeled colistin conjugates. a) Three Gram‐negative bacteria (E. coli K12, A. baumannii, P. aeruginosa PA14) were grown in T‐medium, to an OD600 of 1.0, and the fluorescently labeled compounds were added (1 μM in PBS, rt, 1 h incubation), followed by washing steps and a quantification of fluorescence in the wells. C‐Fluo: 5(6)‐carboxyfluorescein. […] An overlay of fluorescence (485/520 nm) and phase contrast pictures is shown. […]
Cell counting: 20 µl of a cell suspension were mixed with 20 µl Cedex Tryptan Blue Solution. 10 µl of the mixture were measured automatically in a cell counter (Cedex XS Cell Analyzer, Roche) in duplicate.
Quantification of bacterial binding of fluorescently labelled compounds The bacterial strains A. baumannii, E. coli K12 and P. aeruginosa PA14 were cultivated in T-medium at 37 °C to exponential growth (OD600 = 2-3). […] Afterwards, the bacteria were washed twice with PBS, suspended at OD600 = 0.2 in PBS and fluorescence was measured at 485/520 nm with 200 µl of bacterial suspensions in black 96-well microtiter plates from above in triplicate. […]

Compound | MIC with 10 mU mL^−1 Elastase (E. coli K12) | MIC with 100 mU mL^−1 Elastase (E. coli K12) | MIC without Elastase (E. coli K12) | further results
4-pentinoyl-ßAla-Ala-Ala-Pro-Val-colistin B (lariat or depsi) [Compound 48] | – | – | – | MIC (E. coli K12; E. coli K12, T medium, 17.5 h at 37 °C (Figure S10), text does not say with or without elastase): 16 µM
5(6)‐carboxyfluorescein | – | – | – | bacterial binding (fluorescence), in words [1]: did hardly show binding above background
CC[C@H](NC(=O)[C@@H]1C[C@@H]2CCCC[C@@H]2N1C(=O)[C@H](CCS(C)(=O)=O)NC(=O)[C@H](Cc1ccc(C(=O)c2ccccc2)cc1)NC(=O)CCc1cn(CCCC[C@@H](NC(=O)CCNC(=O)[C@@H](CCCNC(=N)N)NC(=O)[C@@H](CCCNC(=N)N)NC(=O)[C@@H](CC(N)=O)NC(=O)[C@@H](Cc2ccc(O)cc2)NC(=O)[C@@H](CCC(N)=O)NC(=O)[C@@H](CCSC)NC(=O)[C@@H](CCCNC(=N)N)NC(=O)[C@@H](CCCNC(=N)N)NC(=O)[C@@H](CCCCN)NC(=O)[C@@H](C)NC(=O)[C@@H](CCCNC(=N)N)NC(=O)CNC(=O)[C@H](N)[C@H](C)O)C(N)=O)nn1)C(=O)NCC[C@H](NC(=O)CCCCC(C)C)C(=O)N[C@H](C(=O)N[C@@H](CCN)C(=O)N[C@H]1CCNC(=O)[C@H]([C@@H](C)O)NC(=O)[C@H](CCN)NC(=O)[C@H](CCN)NC(=O)[C@H](CC(C)C)NC(=O)[C@@H](CC(C)C)NC(=O)[C@H](CCN)NC1=O)[C@@H](C)O [Compound 22] | 0.125 µM | 0.063 µM | 4 µM (≈ 15.2 µg/mL) | –
CC[C@H](NC(=O)[C@@H]1C[C@@H]2CCCC[C@@H]2N1C(=O)[C@H](CCS(C)(=O)=O)NC(=O)[C@H](Cc1ccc(C(=O)c2ccccc2)cc1)NC(=O)CCc1cn(CCCC[C@@H](NC(=O)CCNC(=O)[C@@H](CCCNC(=N)N)NC(=O)[C@@H](CCCNC(=N)N)NC(=O)[C@@H](CC(N)=O)NC(=O)[C@@H](Cc2ccc(O)cc2)NC(=O)[C@@H](CCC(N)=O)NC(=O)[C@@H](CCSC)NC(=O)[C@@H](CCCNC(=N)N)NC(=O)[C@@H](CCCNC(=N)N)NC(=O)[C@@H](CCCCN)NC(=O)[C@@H](C)NC(=O)[C@@H](CCCNC(=N)N)NC(=O)CNC(=O)[C@H](N)[C@H](C)O)C(N)=O)nn1)C(=O)NCC[C@H](NC(=O)[C@@H](NC(=O)[C@H](CCN)NC(=O)CCCCC(C)C)[C@@H](C)O)C(=O)N[C@H]1CCNC(=O)[C@H]([C@@H](C)O)NC(=O)[C@H](CCN)NC(=O)[C@H](CCN)NC(=O)[C@H](CC(C)C)NC(=O)[C@@H](CC(C)C)NC(=O)[C@H](CCN)NC1=O [Compound 28] | 0.25 µM | 0.125 µM | 8 µM (≈ 30.4 µg/mL) | –
CC[C@H](NC(=O)[C@@H]1C[C@@H]2CCCC[C@@H]2N1C(=O)[C@H](CCS(C)(=O)=O)NC(=O)[C@H](Cc1ccc(C(=O)c2ccccc2)cc1)NC(=O)CCc1cn(CCCC[C@@H](NC(=O)CCNC(=O)[C@@H](CCCNC(=N)N)NC(=O)[C@@H](CCCNC(=N)N)NC(=O)[C@@H](CC(N)=O)NC(=O)[C@@H](Cc2ccc(O)cc2)NC(=O)[C@@H](CCC(N)=O)NC(=O)[C@@H](CCSC)NC(=O)[C@@H](CCCNC(=N)N)NC(=O)[C@@H](CCCNC(=N)N)NC(=O)[C@@H](CCCCN)NC(=O)[C@@H](C)NC(=O)[C@@H](CCCNC(=N)N)NC(=O)CNC(=O)[C@H](N)[C@H](C)O)C(N)=O)nn1)C(=O)NCC[C@@H]1NC(=O)[C@@H](NC(=O)[C@H](CCN)NC(=O)[C@@H](NC(=O)[C@H](CCN)NC(=O)CCCCC(C)C)[C@@H](C)O)CCNC(=O)[C@H]([C@@H](C)O)NC(=O)[C@H](CCN)NC(=O)[C@H](CCN)NC(=O)[C@H](CC(C)C)NC(=O)[C@@H](CC(C)C)NC1=O [Compound 34] | 4 µM | 4 µM | >32 µM | –
CC[C@H](NC(=O)[C@@H]1C[C@@H]2CCCC[C@@H]2N1C(=O)[C@H](CCS(C)(=O)=O)NC(=O)[C@H](Cc1ccc(C(=O)c2ccccc2)cc1)NC(=O)CCc1cn(CCCC[C@@H](NC(=O)CCNC(=O)[C@@H](CCCNC(=N)N)NC(=O)[C@@H](CCCNC(=N)N)NC(=O)[C@@H](CC(N)=O)NC(=O)[C@@H](Cc2ccc(O)cc2)NC(=O)[C@@H](CCC(N)=O)NC(=O)[C@@H](CCSC)NC(=O)[C@@H](CCCNC(=N)N)NC(=O)[C@@H](CCCNC(=N)N)NC(=O)[C@@H](CCCCN)NC(=O)[C@@H](C)NC(=O)[C@@H](CCCNC(=N)N)NC(=O)CNC(=O)[C@H](N)[C@H](C)O)C(N)=O)nn1)C(=O)NCC[C@@H]1NC(=O)[C@H](CC(C)C)NC(=O)[C@@H](CC(C)C)NC(=O)[C@H](CCN)NC(=O)[C@@H](NC(=O)[C@H](CCN)NC(=O)[C@@H](NC(=O)[C@H](CCN)NC(=O)CCCCC(C)C)[C@@H](C)O)CCNC(=O)[C@H]([C@@H](C)O)NC(=O)[C@H](CCN)NC1=O [Compound 40] | >32 µM | 32 µM | >32 µM | –
CC[C@H](NC(=O)[C@@H]1C[C@@H]2CCCC[C@@H]2N1C(=O)[C@H](CCS(C)(=O)=O)NC(=O)[C@H](Cc1ccc(C(=O)c2ccccc2)cc1)NC(=O)CCc1cn(CCCC[C@@H](NC(=O)CCNC(=O)[C@@H](CCCNC(=N)N)NC(=O)[C@@H](CCCNC(=N)N)NC(=O)[C@@H](CC(N)=O)NC(=O)[C@@H](Cc2ccc(O)cc2)NC(=O)[C@@H](CCC(N)=O)NC(=O)[C@@H](CCSC)NC(=O)[C@@H](CCCNC(=N)N)NC(=O)[C@@H](CCCNC(=N)N)NC(=O)[C@@H](CCCCN)NC(=O)[C@@H](C)NC(=O)[C@@H](CCCNC(=N)N)NC(=O)CNC(=O)[C@H](N)[C@H](C)O)C(N)=O)nn1)C(=O)NCC[C@@H]1NC(=O)[C@H](CCN)NC(=O)[C@H](CC(C)C)NC(=O)[C@@H](CC(C)C)NC(=O)[C@H](CCN)NC(=O)[C@@H](NC(=O)[C@H](CCN)NC(=O)[C@@H](NC(=O)[C@H](CCN)NC(=O)CCCCC(C)C)[C@@H](C)O)CCNC(=O)[C@H]([C@@H](C)O)NC1=O [Compound 46] | 32 µM | 8 µM | >32 µM | –
(all-D) T-G-R-A-K-R-R-M-Q-Y-N-R-R-ßAla-norleucinamide(1H-1,2,3-triazol-4-yl)propionyl-ßAla-L-Ala-L-Ala-L-Pro-L-Val-colistin B [Compound 49] | – | – | – | antimicrobial activity (MIC) in the presence of neutrophil elastase (E. coli K12; E. coli K12, 10 mU/ml elastase, T medium, 17.5 h at 37 °C (Figure S10)): > 32 µM; antimicrobial activity (MIC) in the absence of neutrophil elastase (E. coli K12; E. coli K12, T medium, 17.5 h at 37 °C (Figure S10)): > 32 µM
Neutrophil elastase: Neutrophil Elastase (human), affinity purified, USBiological | – | – | – | antimicrobial activity of neutrophil elastase alone (E. coli K12; elastase alone, two strains of E. coli (K12 and DSM 1116)): did not display any antimicrobial activity
